# Measurements as given in PubChem BioAssay (NCI).
#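 These data come from cells grown in 96-well plates and exposed to compound for 48 hours at five concentrations. At the GI50, growth is halved. TGI denotes the concentration required for complete inhibition of growth.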
# How the values were obtained:
# Test in all cases: inhibition of tumour cell growth, NCI panel, 48 h
# [1] = test system: HCT-116 colon
# [2] = test system: OVCAR-3 ovarian
# [3] = test system: NCI/ADR-RES ovarian
# [4] = test system: SW-620 colon
# [5] = test system: SK-MEL-2 melanoma
# [6] = test system: UO-31 renal
# [7] = test system: OVCAR-5 ovarian
# [8] = test system: HT29 colon
# [9] = test system: OVCAR-8 ovarian
# [10] = test system: HOP-92 NSCLC
Compound,GI50 [1] [µM],TGI [1] [µM],GI50 [2] [µM],TGI [2] [µM],GI50 [3] [µM],TGI [3] [µM],GI50 [4] [µM],TGI [4] [µM],GI50 [5] [µM],TGI [5] [µM],GI50 [6] [µM],TGI [6] [µM],GI50 [7] [µM],TGI [7] [µM],GI50 [8] [µM],TGI [8] [µM],GI50 [9] [µM],TGI [9] [µM],TGI [10] [µM]
O=C(/C=C\c1ccc(Cl)c(Cl)c1)c1ccccc1,1.91,3.89,6.34,18.9,5.49,26.4,2.21,5.52,13.8,27.4,4.09,16.7,15.3,31.3,2.27,5.37,3.98,15.1,–
Cn1c(N)cc(=O)nc1N,–,> 100,–,> 100,–,> 100,–,> 100,–,> 100,–,> 100,–,> 100,–,> 100,–,> 100,–
O=C(CN1C(=O)c2ccccc2C1=O)NC1(C(=O)O)CCCC1,–,> 100,–,> 100,–,> 100,–,> 100,–,> 100,–,> 100,–,> 100,–,> 100,–,> 100,–
O=C1OC2C(O)COC2(OCc2c[nH]c3ccccc23)C1O (stereo not drawn) (tested in a mixture with another compound),–,> 100,–,> 100,–,–,–,> 100,–,> 100,–,> 100,–,> 100,–,> 100,–,> 100,> 100
Cc1nc2c(=O)n(C)c(=O)nc-2n(-c2ccc(Cl)cc2)c1C,–,–,–,> 100,–,–,–,> 100,–,> 100,–,> 100,–,> 100,–,> 100,–,> 100,> 100
O=[N+]([O-])c1ccc(-c2ccc(C3=Nn4c(nnc4-c4ccc(Cl)cc4)SC3)o2)cc1,–,> 100,–,> 100,–,–,–,> 100,–,> 100,–,> 100,–,> 100,–,> 100,–,> 100,> 75.8
O=C1c2ccccc2CC1C1(O)C(=O)Nc2c(Cl)cc(Cl)cc21 (stereo not drawn),–,–,–,> 100,–,–,–,> 100,–,> 100,–,> 100,–,> 100,–,> 100,–,> 100,> 100
S=C(N/N=C/c1ccccc1)NC1CC(c2ccccc2)Oc2ccccc21 (stereo not drawn),–,> 100,–,28.7,–,–,–,> 100,–,> 100,–,> 100,–,> 100,–,> 100,–,> 100,10.2
O=S(O)CCCSSCCCCSSCCCS(=O)O,–,> 100,–,> 100,–,–,–,> 100,–,> 100,–,> 100,–,> 100,–,> 100,–,> 100,–
CC1CCCC2(O1)OC1CC(=O)OC1C1=C2C(=O)c2ccccc2C1=O (stereo not drawn),–,–,–,10.5,–,–,–,6.42,–,6.11,–,5.41,–,35,–,11,–,7.06,–
CC(=O)OC12CCCCC1C1(CCCC1)NC2=O (stereo not drawn),–,> 100,–,> 100,–,–,–,> 100,–,–,–,> 100,–,> 100,–,> 100,–,> 100,–
CC(=O)NC(Cc1ccccc1)C(=S)N1CCCC1 (stereo not drawn),–,> 100,–,> 100,–,–,–,> 100,–,> 100,–,> 100,–,> 100,–,> 100,–,> 100,> 100
CCN(CC)CC(C(=O)Nc1c(C)cccc1C)/C(C)=N/NC(N)=S (stereo not drawn),–,> 100,–,> 100,–,–,–,> 100,–,> 100,–,> 100,–,> 100,–,> 100,–,> 100,> 100
O=c1[nH]c2cccccc-2c1-c1nc2ccccc2[nH]1,–,> 100,–,–,–,–,–,> 100,–,77.1,–,86.6,–,> 100,–,> 100,–,96.7,93.6
CC(C)(O)C1CC(=O)C(C)(C2C(O)CC3(C)C4CC=C5C(CCC(O)C5(C)C)C4(C)C(=O)CC23C)O1 (stereo not drawn),–,> 100,–,> 100,–,–,–,> 100,–,> 100,–,> 100,–,> 100,–,> 100,–,> 100,> 100
Oc1c(Br)cc(Br)c2cccnc12,3.22,10.6,3.53,15.2,2.82,> 100,4.58,72.8,–,–,2.56,16.5,6.21,49.5,6.55,26.1,3.75,> 100,–
COC(=O)c1c(OC(=O)c2ccccc2)noc1CC(=O)OC1C=CCCC1 (stereo not drawn),–,> 100,–,> 100,–,–,–,> 100,–,> 100,–,> 100,–,–,–,–,–,> 100,–
